Data set [1] concerns HEK-293 ATCC CRL-1573 human embryonic kidney cells. It is filed as cell-based. In short, it runs like this: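 Compounds tested on HEK-293 cells at final 0.8–100 µM, with tamoxifen as internal positive control on each plate; haemolysis on human red blood cells incubated 1 h at 37 °C without shaking, reported as HC10 and HC50 from curve fits for top, bottom and slope, melittin as positive haemolytic control.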

For data set [2], the system named is Staphylococcus aureus ATCC 25923, MSSA. Put plainly: Antibacterial MIC assay, Gram-positive panel. The data set is classed as cell-based. The settings on record: n=4. The procedure, abridged: (§1)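 MIC is defined here as the lowest concentration inhibiting growth by ≥80% relative to untreated bacteria. The assay used OD600 in CAMHB after an 18 h, 37 °C incubation at 5 × 10^5 CFU/mL. Compound was dosed in 2-fold steps with DMSO capped at 0.5–1% final.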

Data set [3] has as its system Staphylococcus aureus VRS 1, VRSA (VanA). Kind of data set: Antibacterial MIC assay, Gram-positive panel. It is filed as cell-based. The settings on record: n=4. In short, it runs like this:
as §1

The subject of data set [4] is Galleria mellonella larvae. Kind of data set: In vivo toxicity in moth larvae. The settings on record: for concentration without any toxicity in G. mellonella: 10 μL injected, five larvae per concentration, survival and health index over 96 hours, highest tested; for dosage without any toxicity in G. mellonella: equates to 0.4 mM, 10 μL injection. Here is the method: Following a protocol previously reported by us we used larvae of the greater wax moth Galleria mellonella as a model organism for in vivo toxicity and efficacy.[20] […] Briefly, stock solutions of Pt1 and Pt2 were prepared in DMSO and diluted to final concentrations of 0.4 mM, 100 μM, 10 μM and 1 μM. […] For each concentration five larvae were injected with 10 μL and monitored for 96 hours for survival and health using the G. mellonella Health Index Scoring System.[22] […]
G. mellonella larvae were reared in controlled environmental room at Macquarie University, Sydney, Australia at 26 °C and 65% humidity with a 12-hours light/dark cycle. Larvae (~200 mg) were individually injected with 10 µL of chemical into the last right proleg using a 100 μL syringe (Hamilton Ltd). The […]
Each compound was dissolved in DMSO and diluted to final concentrations of 1 µM, 100 µM and 10 mM. We injected 5 larvae for each dilution of each compound.
Larvae injected with different dilutions of DMSO (10-1, 10-3 and 10-5) were included as negative controls.
Following injection, the larvae were incubated at 26 °C and monitored every 24 h for 4 days. Larval performance was assessed according to the G. mellonella Health Index Scoring System.[1] The experiments were repeated three separate times. […]

Data set [5] concerns Staphylococcus aureus NRS 17, GISA. Put plainly: Antibacterial MIC assay, Gram-positive panel. The settings on record: n=2. It is filed as cell-based. In short, it runs like this: as §1
Data set [6] has as its system E. coli lpxC (non‐efficient lipid A production mutant). Put plainly: MIC against E. coli membrane mutants. It is filed as cell-based, Escherichia coli. The settings on record: Table S2. The procedure, abridged:
(§2)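 Mid-log E. coli cultures, grown overnight at 37 °C, were exposed to compound over a final 0.8–100 µM range. MIC was read as the lowest inhibitory concentration.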

Data set [7] deals with E. coli tolC (efflux pump deficient). Kind of data set: MIC against E. coli membrane mutants. It is filed as cell-based, Escherichia coli. The settings on record: Table S2. The procedure, abridged: as §2
The test system of data set [8] is B. subtilis ATCC 6051 type strain. Put plainly: MIC in the presence of human serum (serum reversal). It is filed as cell-based, Bacillus subtilis. The settings on record: 10% serum. The procedure, abridged:
(§3)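 MIC determination repeated in the presence of 10% or 50% human serum. Bacteria grown overnight at 37 °C, diluted from mid-log cultures, and tested at a final concentration range of 0.8–100 µM.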

Data set [9] concerns S. aureus ATCC 43300 MRSA. Described as above. It is filed as cell-based, Staphylococcus aureus. The settings on record: 50% serum. In short, it runs like this: as §3
Data set [10] concerns E. faecium ATCC 51559 MDR, VRE. The description is as above. The data set is classed as cell-based, Enterococcus faecium. The settings on record: 10% serum. In short, it runs like this: as §3

Marks after values point to notes of the source that are not given here.

One may read the CC50 as the concentration at which the toxic effect on the cells reaches its halfway point. Higher therefore signals better tolerance by the cells. The MIC is the lowest concentration found to suppress growth. Turning to `C1=C\CC/C=C\CC/1.[Cl-].[Cl-].[Pt+2]` [Pt1, Pt(COD)Cl2], the CC50 in [1] is more than 100 µM. In [2] (Table 2 panel), the MIC is 3.125^[a] μg/mL. Moreover, the MIC in [3] (Table 2 panel) was 12.5^[a] μg/mL. Besides, in data set [4], the “concentration without any toxicity in G. mellonella” value is not below 400 µM and the “dosage without any toxicity in G. mellonella” value is 6 to 7.5 mg/kg.
Turning to `C1=CCC/C=C\CC1.[I][Pt][I]` [Pt2, Pt(COD)I2], the CC50 in data set [1] was more than 100 µM. In addition, the MIC in data set [2] (Table 2 panel) was 1.56–3.125^[a] μg/mL; in data set [3] (Table 2 panel) it was 6.25^[a] μg/mL; in data set [5] (Table 2 panel), 0.78–1.56^[b] μg/mL. The compound also registered an MIC E. coli lpxC in data set [6] of 100 µM. Besides, in data set [4], the “concentration without any toxicity in G. mellonella” value was not below 400 µM. Also, in data set [4], the “dosage without any toxicity in G. mellonella” value lay within 9 to 11 mg/kg.
In turn, `CCC1=CCCC=CCC1.[CH3][Pt][Cl]` [Pt7] registered a CC50 in data set [1] of more than 100 µM. Also, the MIC in [2] (Table S1 panel) is more than 200 µM; in [3] (Table S1 panel) it was more than 200 µM; in data set [5] (Table S1 panel), 200 µM. Further, the MIC E. coli lpxC in data set [6] is more than 200 µM. This compound also displayed an MIC E. coli TolC in data set [7] of more than 200 µM. For the same compound, the MIC in the presence of human serum in data set [8], in data set [9] and in data set [10] was more than 200 µM in each case.

These data come from publication PMC8596843, “Platinum Cyclooctadiene Complexes with Activity against Gram‐positive Bacteria” (Chemmedchem, 2021).
